# Results as given in PMC9953095, “Design, Synthesis and Biological Evaluation of Quinazolinamine Derivatives as Breast Cancer Resistance Protein and P-Glycoprotein Inhibitors with Improved Metabolic Stability” (Biomolecules, 2023).
# Several values for one entry are separate records, joined by “and”; a condition that tells them apart may be missing. Equal values may be shown once. Read-outs that look alike come from different tables or passages of the source.
# Columns and labels:
# [1] = tested on: P-gp-mediated multidrug-resistant cell line KB-C2; assay: cells; details: Homo sapiens, KB-C2, read-out: IC50 value of colchicine
# Experimental: (§1) The human lung cancer cell line H460, and its MX-selected derivative BCRP-overexpressing cell line, H460/MX20, were used in this study. The KB-C2 cell line was selected by colchicine (Alfa Aesar, Haverhill, MA, USA) (2 μg/mL) with human cervical carcinoma cell line KB-3-1.
# (§2) Cytotoxicity tests and reversal experiments were performed using the 3-(4,5-dimethylthiazol-2-yl)-2,5-diphenyltetrazolium bromide (MTT) colorimetric assay. Cells were seeded evenly into 96-well plates. […] To determine the MDR reversal efficacy of the quinazolinamine derivatives, an anticancer drug (mitoxantrone, colchicine, paclitaxel or cisplatin) was added into the designated wells after 2 h pre-incubation with a quinazolinamine derivative or a positive control inhibitor at non-toxic concentrations. After 72 h of drug incubation, the MTT reagent (4 mg/mL) was added into the wells, and then the plates were incubated for an additional 4 h. Subsequently, the supernatant was discarded and 100 µL of dimethyl sulfoxide (DMSO) was added to dissolve the formazan crystals. Cell viability was determined by measuring the absorbance by using an accuSkan™ GO UV/Vis Microplate Spectrophotometer (Fisher Sci., Fair Lawn, NJ, USA) at a wavelength of 570 nm.
# [2] = Metabolic stability with human liver microsomes; assay type: in vitro ADME; details: after 1 h of incubation with human liver microsomes, 37 °C, NADPH; also: tested at 200 µM
# Experimental: Human liver microsome (20 mg/mL) 6.25 µL, nicotinamide adenine dinucleotide phosphate (NADPH) (0.75 µmol), MgCl2 (0.75 µmol), and the test compound (0.05 µmol) were added into a potassium phosphate buffer (pH 7.4) with 250 µL of final volume. The incubation was carried out aerobically at 37 °C. The mixture was pre-incubated without NADPH for 10 min at 37 °C and NADPH was added to start the reaction. At 1 h after the start of the reaction, an aliquot (50 µL) of the incubation mixture was taken from each incubation and mixed with 150 µL of ice-cold acetonitrile to terminate the reaction. Subsequently, the sample was centrifuged (12,000 rpm) at room temperature. The resulting supernatant was filtered and analyzed using HPLC (LC, Agilent 1200; column, HC-C18(2); column temperature, 25 °C; mobile phase, solvent A, methanol, solvent B, water; gradient elution, 30–99% solvent A; flow rate, 1 mL/min; UV signals were recorded at 254 nm).
# [3] = tested on: BCRP localization in H460/MX20 cells; assay: Immunofluorescence assay of BCRP localization in H460/MX20 cells; assay type: cell-based, human; details: 5 μM for 24, 48, and 72 h, Figure 8A,C
# Experimental: For immunofluorescence analysis, parental and drug-resistant cells were seeded in 24-well plates at 10,000–20,000 cells/well and incubated for 24 h. The cells were incubated with or without cyclopropyl quinazolinamine 22 or azide quinazolinamine 33 for 24 h, 48 h, and 72 h. Thereafter, cells were washed with PBS and fixed with 4% paraformaldehyde for 10 min at room temperature and then rinsed with PBS twice, followed by permeabilization with 1% Triton X-100 for 10 min at 4 °C. The cells were again washed twice with PBS, and then blocked with 6% BSA for 1 h at 37 °C. Fixed cells were incubated with monoclonal antibody against the BCRP protein (BXP 21) (Sigma-Aldrich, Inc., St. Louis, MO) (1:1000) or P-gp (F4) (Sigma-Aldrich, Inc., St. Louis, MO, USA) overnight at 4 °C, followed by two washes with PBS. The cells were then further incubated with Alexa flour 488 goat anti-mouse IgG (1:1000) (Abcam plc.) for 2 h at 37 °C. After the cells were washed twice with PBS, 4′,6-diamidino-2-phenylindole (DAPI) (2 µg/mL) was used for nuclear counterstaining. The immunofluorescence images were generated using a Nikon TE-2000S fluorescence microscope (Nikon Instruments Inc, Melville, NY, USA).
# [4] = tested on: H460 cells; assay: [3H]-mitoxantrone accumulation assay, H460; assay type: cell-based, human; details: parental H460 cells; compound 5 μM; Figure 6A
# Experimental: (§3) To determine the accumulation of drugs on H460, H460/MX20, KB-3-1, and KB-C2 cells, the cells ([…] cells/well) were seeded in the 24-well plates and incubated at 37 °C with 5% CO2 [17]. After 12 h of incubation, a test compound (5 µM) was added and the plates were incubated at 37 °C for 2 h. Cells were then incubated with 0.01 µM [^3H]-MX or [^3H]-paclitaxel-containing medium for an additional 2 h at 37 °C, with or without a test compound. The cells were washed twice with ice-cold phosphate-buffered saline (PBS), trypsinized and lysed at the end of incubation. The radioactivity was measured using the Packard TRICARB1 1900A liquid scintillation analyzer.
# [5] = molecular target: T1, BCRP ATPase (Homo sapiens, UniProt Q9UNQ0); assay: Vanadate-sensitive BCRP ATPase assay; assay type: biochemical; details: membrane vesicles of High Five insect cells; Figure 10A,B
# T1 construct: host or cells: High Five insect cells (membrane vesicles)
# T1 sequence (Q9UNQ0 1-655): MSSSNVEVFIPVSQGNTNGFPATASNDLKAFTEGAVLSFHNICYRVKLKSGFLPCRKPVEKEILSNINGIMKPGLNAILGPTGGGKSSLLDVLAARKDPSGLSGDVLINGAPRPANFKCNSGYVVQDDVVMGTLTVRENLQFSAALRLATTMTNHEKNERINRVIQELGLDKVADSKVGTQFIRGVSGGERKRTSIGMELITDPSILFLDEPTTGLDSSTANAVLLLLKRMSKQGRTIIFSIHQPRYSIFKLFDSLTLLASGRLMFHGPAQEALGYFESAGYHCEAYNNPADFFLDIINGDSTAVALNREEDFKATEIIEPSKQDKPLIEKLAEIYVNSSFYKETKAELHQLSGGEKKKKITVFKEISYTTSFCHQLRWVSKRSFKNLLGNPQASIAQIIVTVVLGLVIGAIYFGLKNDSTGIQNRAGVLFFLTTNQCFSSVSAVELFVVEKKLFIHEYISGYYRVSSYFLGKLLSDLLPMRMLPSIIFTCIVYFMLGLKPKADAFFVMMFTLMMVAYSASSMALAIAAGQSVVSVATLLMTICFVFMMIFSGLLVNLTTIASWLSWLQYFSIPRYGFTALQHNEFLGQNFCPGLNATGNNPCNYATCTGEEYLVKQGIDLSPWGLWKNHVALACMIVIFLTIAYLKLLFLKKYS
# Experimental: The vanadate (Vi)-sensitive ATPase activity of BCRP and P-gp in the membrane vesicles of High Five insect cells was measured as described previously. The results were presented as vanadate-sensitive ATPase activities by determining the difference in inorganic phosphate liberation measured in the presence and absence of sodium orthovanadate.
# [6] = tested on: BCRP protein in H460/MX20 cells; assay: Western blot of BCRP expression in H460/MX20 cells; assay type: cell-based, human; details: H460/MX20 total cell lysate; Figure 7
# Experimental: Cells in T25 flask were washed with ice-cold PBS. Lysis buffer (100 µL) was added into T25 flask. Using a cell scraper, scrape adherent cells were scraped off the flask and the cell suspension was transferred into a microcentrifuge tube (1.5 mL). Cells were agitated for 20 min at 4 °C and cell lysate was centrifuged mixture at 4 °C for 20 min at 12,000 rpm. The supernatant (lysate) was used for the gel electrophoresis. Equal amounts of total cell lysates (20 µg protein) were resolved by sodium dodecyl sulfate polyacrylamide gel electrophoresis (SDS-PAGE) and electrophoretically transferred onto polyvinylidene fluoride (PVDF) membranes. After incubation in a blocking solution (5% milk) for 2 h at room temperature, the membranes were incubated overnight with primary monoclonal antibodies against GAPDH (GA1R) (Invitrogen, Carlsbad, CA, USA) at 1:1000 dilution of BCRP protein (BXP 21) (Sigma-Aldrich, Inc., St. Louis, MO, USA) (1:1000) or P-gp (F4) (Sigma-Aldrich, Inc., St. Louis, MO, USA) at 4 °C, and were further incubated with horseradish […] (HRP)-conjugated secondary antibody (Thermo Fisher Scientific Inc., Waltham, MA, USA) at 1:1000 dilution for 2 h at room temperature. The protein antibody complex was detected using an enhanced chemiluminescence detection system. The grayscale ratio was analyzed by ImageJ and normalized by the grayscale of the ABC protein divided by that of GAPDH.
# [7] = tested on: BCRP-overexpressing H460/MX20 cells; assay: [3H]-mitoxantrone accumulation assay, H460/MX20; assay type: cell-based, human
# Experimental: as §3
# [8] = tested on: BCRP-mediated MDR cell line H460/MX20; assay: MTT reversal assay with mitoxantrone, BCRP-overexpressing H460/MX20 cells; assay type: cell-based; details: Homo sapiens, NCI-H460/MX20, H460/MX20, mitoxantrone alone, read-out: IC50 ± SD of mitoxantrone
# Experimental: as §1, §2
# [9] = tested on: human lung cancer cell line H460; assay: MTT reversal assay with mitoxantrone, parental H460 cells; assay type: cell-based; details: NCI-H460, H460, mitoxantrone alone, read-out: IC50 ± SD of mitoxantrone
# Experimental: as §1, §2
compound,measurement,setting,value
COc1cc2c(c(OC)c1OC)-c1ccc(OC)c(=O)cc1[C@@H](NC(C)=O)CC2 [colchicine],IC50,[1],7.34 µM
"CCc1ccc(Nc2nc(-c3ccncc3)nc3ccccc23)cc1 [Compound 4, N-(4-Ethylphenyl)-2-(pyridin-4-yl)quinazolin-4-amine]",melting point,,228 to 230 °C
same,"Metabolic Stability, % compound remaining",[2],87 ± 12%
"CCc1cccc(Nc2nc(-c3ccncc3)nc3ccccc23)c1 [Compound 24, N-(3-Ethylphenyl)-2-(pyridin-4-yl)quinazolin-4-amine]","Metabolic Stability, % compound remaining",[2],91 ± 3%
"COc1ccc(Nc2nc(-c3ccncc3)nc3ccccc23)cc1 [Compound 27, N-(4-Methoxyphenyl)-2-(pyridin-4-yl)quinazolin-4-amine]","Metabolic Stability, % compound remaining",[2],83 ± 1%
"CC(C)c1ccc(Nc2nc(-c3ccncc3)nc3ccccc23)cc1 [Compound 23, N-(4-Isopropylphenyl)-2-(pyridin-4-yl)quinazolin-4-amine]","Metabolic Stability, % compound remaining",[2],75 ± 6%
"[N-]=[N+]=Nc1ccc(Nc2nc(-c3ccncc3)nc3ccccc23)cc1 [Compound 33, N-(4-Azidophenyl)-2-(pyridin-4-yl)quinazolin-4-amine]",BCRP fluorescence on the membranes / intracellular localization of BCRP,[3],did not change the intracellular localization
same,"Metabolic Stability, % compound remaining",[2],86 ± 11%
same,accumulation of mitoxantrone,[4],slightly increase
same,effect on Vi-sensitive BCRP ATPase activity (ATP hydrolysis),[5],significantly stimulated
same,expression level of BCRP protein,[6],not altered
same,accumulation of mitoxantrone after UV light activation,"[7]; H460/MX20, compound followed by UV light activation",increased compared to the group without activation
same,accumulation of mitoxantrone,"[7]; resistant H460/MX20 cells, compound 5 μM, Figure 6A",increased the accumulation
"COc1ccc2c3c([nH]c2c1)[C@H](CC(C)C)N1C(=O)[C@H](CCC(=O)OC(C)(C)C)NC(=O)[C@@H]1C3 [Ko143, reference compound]","Metabolic Stability, % compound remaining",[2],41% and 41 ± 7%
"CCCc1ccc(Nc2nc(-c3ccncc3)nc3ccccc23)cc1 [Compound 5, N-(4-Propylphenyl)-2-(pyridin-4-yl)quinazolin-4-amine]",melting point,,212 to 214 °C
same,"Metabolic Stability, % compound remaining",[2],80 ± 5%
O=C1c2c(O)ccc(O)c2C(=O)c2c(NCCNCCO)ccc(NCCNCCO)c21 [Mitoxantrone],IC50,[8]; Table 1 series,5.66 ± 0.29 µM
same,IC50,[8]; Table 2 series,6.5 ± 0.14 µM
same,IC50,[9]; Table 1 series,0.072 ± 0.009 µM
same,IC50,[9]; Table 2 series,0.154 ± 0.051 µM
